Experimental data as given in article PMC8070514, “Antibacterial and Antibiofilm Activities of Novel Antimicrobial Peptides against Multidrug-Resistant Enterotoxigenic Escherichia Coli” (International Journal of Molecular Sciences, 2021).
Ends that are not written are not given here.

Key:
[1] = system: MDR ETEC (multidrug-resistant enterotoxigenic Escherichia coli); conditions: MDR ETEC clinical isolate; 96-well microtiter plates, 10^4 CFU/mL inoculum, 48 h at 37 °C, absorbance 600 nm; lowest concentration that completely inhibits visible growth
Protocol: (§1) The MDR ETEC strain used in this study was a clinical isolate kindly provided by our co-author, Dr. Hui-Wen Chang from Department of Veterinary Medicine and Graduate Institute of Molecular and Comparative Pathobiology, School of Veterinary Medicine, National Taiwan University. […] Glycerol stocks (20%, v/v) were maintained at −86 °C for long-term storage.
Cultures were examined for growth after 48 h incubation at 37 °C, and the absorbance at 600 nm was measured.

[2] = Hemolytic activity, minimal hemolysis concentration (MHC); format: cell-based; conditions: method not described
[3] = system: MDR ETEC strain (clinical isolate); experiment: Resistance of the MDR ETEC strain to conventional antibiotics; format: cell-based, Escherichia coli; conditions: method not given
Protocol: as §1

[4] = system: intestinal porcine epithelial cell line-1 (IPEC-1); experiment: Cell viability (MTT) assay, IPEC-1; format: cell-based; conditions: IPEC-1, 24 h exposure
Protocol: (§2) The IPEC-1 and IPEC-J2 cell lines were kindly provided by Dr. Je-Ruei Liu from Institute of Biotechnology and Department of Animal Science and Technology, National Taiwan University. The culture conditions and protocols were according to Koh et al. with slight modifications. Both IPEC-1 and IPEC-J2 cells were seeded on 9-cm cell culture dishes and were cultured and maintained in Dulbecco’s modified Eagle medium (DMEM)/nutrient mixture F-12 (GeneDireX, Taipei, Taiwan) supplemented with 10% fetal bovine serum (FBS; Hyclone, Cytiva, Washington DC, USA). The cultures were maintained in a humidified incubator in an atmosphere of 5% CO2 at 37 °C. After 4 to 5 days of culturing, both cell lines became confluent. Cell monolayers were washed with 3–5 mL Dulbecco’s phosphate buffered saline (DPBS, Amresco, Solon, OH, USA) and trypsinized with 1× trypsin-EDTA. The detached cells were pelleted at 200× g for 5 min, re-suspended in antibiotic-free medium, and used for subsequent adherence assays. […]
(§3) The viability of both IPEC-1 and IPEC-J2 cells after treated with AMP Q4-15a-1 was evaluated using 3-(4,5-dimethylthiazol-2-yl)-2,5-diphenyltetrazolium bromide (MTT, Amresco, Solon, OH, USA) assays performed in triplicate in three independent experiments. […] Absorbance at 570 nm of the maximum was detected by a multimode microplate reader SpectraMax M2 (Molecular Devices, San Jose, CA, USA). […]

[5] = system: intestinal porcine epithelial cell line-J2 (IPEC-J2); experiment: Cell viability (MTT) assay, IPEC-J2; format: cell-based; conditions: IPEC-J2, 24 h exposure
Protocol: as §2, §3

[6] = system: Acinetobacter baumannii biofilms; conditions: 32 and 64 μg/mL; cited from earlier work
Excerpt: Biofilm is a microbial community that adheres to the surface of various substances and encapsulates themselves in an autologous extracellular matrix. It is a critical issue to manage biofilms in clinical treatment. The matrix of the biofilm plays an important role in the mechanism of resistance to antibiotics, which constitutes a barrier to delay or prevent the interaction of antibiotics with microbial cells, depending on the extracellular polymeric substances and the charge of antimicrobial agents. The latter can be isolated or repelled, thereby reducing its effect on biofilms [[36],[3 ...

Compound | Susceptibility of the MDR ETEC strain [3] | other results
KKFATIAKKFINYLW [Peptide Q4-15] | – | MIC [1]: 8 µg/mL; MHC (minimal hemolysis concentration) [2]: 128 µg/mL
CC1CCc2cc(F)cc3c(=O)c(C(=O)O)cn1c23 (stereo not drawn) [flumequine] | resistant | –
CCn1cc(C(=O)O)c(=O)c2ccc(C)nc21 [nalidixic acid] | resistant | –
CN(C)c1ccc(O)c2c1C[C@H]1C[C@H]3[C@H](N(C)C)C(O)=C(C(N)=O)C(=O)[C@@]3(O)C(O)=C1C2=O [minocycline] | resistant | –
KKFATIAKKFINKLW-NH2 [Peptide Q4-15a-1] | – | MIC [1]: 4 µg/mL; MHC (minimal hemolysis concentration) [2]: 256 µg/mL; IC20 (cell viability, MTT) [4]: around 100 μg/mL; IC20 (cell viability, MTT) [5]: around 100 μg/mL
KKFATIAKKFINKLW [Peptide Q4-15-1] | – | MIC [1]: 8 µg/mL; MHC (minimal hemolysis concentration) [2]: 256 µg/mL
CC(=O)OCC1=C(C(=O)O)N2C(=O)[C@@H](NC(=O)Cc3cccs3)[C@H]2SC1 [cephalothin] | resistant | –
C[C@H]1c2cccc(O)c2C(=O)C2=C(O)[C@]3(O)C(=O)C(C(N)=O)=C(O)[C@@H](N(C)C)[C@@H]3[C@@H](O)[C@@H]21 [doxycycline] | resistant | –
KKFATIAKKFINYLW-NH2 [Peptide Q4-15a] | – | MIC [1]: 4 µg/mL; MHC (minimal hemolysis concentration) [2]: 16 µg/mL
GANAAKKFATIAKKFINYLW [GW-Q4] | – | MIC [1]: 32 µg/mL; MHC (minimal hemolysis concentration) [2]: 128 µg/mL
CC1=C(C(=O)O)N2C(=O)[C@@H](NC(=O)[C@H](N)c3ccc(O)cc3)[C@H]2SC1 [cefadroxil] | resistant | –
penicillin | resistant | –
NC[C@H]1O[C@H](O[C@H]2[C@H](O)[C@@H](O[C@H]3O[C@H](CO)[C@@H](O)[C@H](N)[C@H]3O)[C@H](N)C[C@@H]2N)[C@H](N)C[C@@H]1O [tobramycin] | resistant | –
CCn1cc(C(=O)O)c(=O)c2cc(F)c(N3CCNCC3)cc21 [norfloxacin] | resistant | –
CC1COc2c(N3CCN(C)CC3)c(F)cc3c(=O)c(C(=O)O)cn1c23 (stereo not drawn) [ofloxacin] | resistant | –
LL37 | – | Effect on two Acinetobacter baumannii biofilms [6]: inhibitory effect

Compound | Susceptibility of the MDR ETEC strain [3] | other results
KKFATIAKKFINWLW [Peptide Q4-15-2] | – | MIC [1]: 4 µg/mL; MHC (minimal hemolysis concentration) [2]: 32 µg/mL
CC(C)(O/N=C(\C(=O)N[C@@H]1C(=O)N2C(C(=O)[O-])=C(C[n+]3ccccc3)CS[C@H]12)c1csc(N)n1)C(=O)O [ceftazidime] | resistant | –
C=CC1=C(C(=O)O)N2C(=O)[C@@H](NC(=O)/C(=N\OCC(=O)O)c3csc(N)n3)[C@H]2SC1 [cefixime] | resistant | –
CCN1CCN(C(=O)N[C@@H](C(=O)N[C@@H]2C(=O)N3[C@@H]2SC(C)(C)[C@@H]3C(=O)O)c2ccccc2)C(=O)C1=O [piperacillin] | resistant | –
CNC(C)C1CCC(N)C(OC2C(N)CC(N)C(OC3OCC(C)(O)C(NC)C3O)C2O)O1 (stereo not drawn) [gentamicin] | resistant | –
CCN1CCN(c2cc3c(cc2F)c(=O)c(C(=O)O)cn3C2CC2)CC1 [enrofloxacin] | resistant | –
CN(C)[C@@H]1C(O)=C(C(N)=O)C(=O)[C@@]2(O)C(O)=C3C(=O)c4c(O)cccc4[C@@](C)(O)[C@H]3C[C@@H]12 [tetracycline] | resistant | –
O=C1CN(/N=C/c2ccc([N+](=O)[O-])o2)C(=O)N1 [nitrofurantoin] | moderately susceptible | –
polymyxin B | moderately susceptible | –
GANAAKKFATIAKKFINYLW-NH2 [GW-Q4a] | – | MIC [1]: 8 µg/mL; MHC (minimal hemolysis concentration) [2]: 32 µg/mL
CO/N=C(\C(=O)N[C@@H]1C(=O)N2C(C(=O)O)=C(COC(N)=O)CS[C@H]12)c1ccco1 [cefuroxime] | resistant | –
O=C(N[C@H](CO)[C@H](O)c1ccc([N+](=O)[O-])cc1)C(Cl)Cl [chloramphenicol] | resistant | –
NC[C@H]1O[C@H](O[C@H]2[C@H](O)[C@@H](O[C@H]3O[C@H](CO)[C@@H](O)[C@H](N)[C@H]3O)[C@H](N)C[C@@H]2N)[C@H](O)[C@@H](O)[C@@H]1O [kanamycin] | resistant | –
[H]/N=C(/N)N[C@H]1[C@H](O)[C@@H](O)[C@H](O[C@@H]2O[C@@H](C)[C@](O)(C=O)[C@H]2O[C@@H]2O[C@@H](CO)[C@H](O)[C@@H](O)[C@@H]2NC)[C@@H](N/C(N)=N\[H])[C@@H]1O [streptomycin] | resistant | –
CC1(C)S[C@@H]2[C@H](NC(=O)[C@H](N)c3ccccc3)C(=O)N2[C@H]1C(=O)O [ampicillin] | resistant | –
KKFATIAKKFINWLW-NH2 [Peptide Q4-15a-2] | – | MIC [1]: 2 µg/mL; MHC (minimal hemolysis concentration) [2]: 16 µg/mL
